The target of this assay is Kynurenine/alpha-aminoadipate aminotransferase, mitochondrial (Homo sapiens, UniProt Q8N5Z0). Description: Inhibition Spectra Assay. Conditions: 37 °C. As for the experimental part: Formation of kynurenic acid (KYNA) is indirectly assessed by a decrease in light absorbance at 370 nm (OD370) as the L-kynurenine (KYN) substrate is converted by the human KAT II (hKAT II) enzyme into KYNA. An inhibitor would therefore inhibit the decrease in OD370.The protocol was performed by placing the following reagents into a Costar 384 well black plate (30 uL total assay volume/well): 10 uL of 3x concentrated compound; 10 uL of 3x concentrated substrate mix (BGG (Sigma G-5009); 3 mM L-Kynurenine in 150 mM Tris Acetate (Sigma K3750); 3 mM alpha-ketoglutaric acid in 150 mM Tris Acetate (Sigma K2010); and 210 uM pyridoxal 5-phosphate (PLP) in 150 mM Tris Acetate (Sigma 9255)); and 10 uL of 3x concentrated enzyme (15 nM enzyme in 150 mM Tris Acetate with 0.3% bovine serum).Plates were sealed and incubated at 37 C. for 15-20 h before reading OD370 on a SpectraMax Plus plate reader.
Kynurenine/alpha-aminoadipate aminotransferase, mitochondrial, sequence (Q8N5Z0 whole entry): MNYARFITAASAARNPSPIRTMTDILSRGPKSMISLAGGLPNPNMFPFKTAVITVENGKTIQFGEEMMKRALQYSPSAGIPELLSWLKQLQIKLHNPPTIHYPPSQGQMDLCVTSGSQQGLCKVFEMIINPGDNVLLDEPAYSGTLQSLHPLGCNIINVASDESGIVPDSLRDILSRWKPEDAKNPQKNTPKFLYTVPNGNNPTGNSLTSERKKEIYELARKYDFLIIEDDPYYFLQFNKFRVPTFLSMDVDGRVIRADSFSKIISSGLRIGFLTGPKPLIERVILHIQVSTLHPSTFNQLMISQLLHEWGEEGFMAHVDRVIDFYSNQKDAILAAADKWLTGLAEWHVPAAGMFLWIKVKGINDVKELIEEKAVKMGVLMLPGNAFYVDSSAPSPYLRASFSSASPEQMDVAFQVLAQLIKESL

The term IC50 denotes the midpoint of a concentration-inhibition curve. Consider `Cn1nc2c(c1Cc1ccccc1)C[C@@H](N)C(=O)N2O` [US8933095, 2], for which it took 63.7 nM to reach half-maximal inhibition (IC50).
